Experimental data published in patent US20260356851A1, “TRICYCLIC COMPOUNDS AND USES THEREOF” (HUTCHMED LIMITED, priority 2023, published 2026).

Assays:
Type in all cases: cell-based
[1] = target: T1, pERK1/2 (Thr202/Tyr204), NCI-1H441 (KRAS G12V) (Homo sapiens, UniProt P01116, G12V); test: Assay of intracellular pERK1/2 (Thr202/Tyr204) phosphorylation in NCI-H441 cells (KRAS G12V); settings: pERK1/2, 2 days, read-out: NCI-H441 (KRAS G12V) IC50
T1 construct: pERK1/2 HTRF read-out
Summary of the method: (§1)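 Cells (10000-12000/well) exposed to 3-fold compound dilutions for 2 days at 37 °C, then lysed; pERK1/2 (Thr202/Tyr204) measured by HTRF with d2 and cryptate antibodies, 665/615 nm ratio.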

[2] = target: T2, pERK1/2 (Thr202/Tyr204), PANC-1 (KRAS G121D) (Homo sapiens, UniProt P01116, G12D); test: Assay of intracellular pERK1/2 (Thr202/Tyr204) phosphorylation in PANC-1 cells (KRAS G12D); settings: pERK1/2, 2 days, read-out: PANC-1 (KRAS G12D) IC50
T2 construct: pERK1/2 HTRF read-out
T2 sequence (P01116 1-188 isoform P01116-2 G12D): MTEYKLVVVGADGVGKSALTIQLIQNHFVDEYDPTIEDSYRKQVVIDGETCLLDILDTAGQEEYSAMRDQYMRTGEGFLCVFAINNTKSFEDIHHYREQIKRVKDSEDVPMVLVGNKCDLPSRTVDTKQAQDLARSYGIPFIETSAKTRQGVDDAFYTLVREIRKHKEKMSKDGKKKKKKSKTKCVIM
Summary of the method: as §1

[3] = target: T3, pERK1/2 (Thr202/Tyr204), NCI-1H358 (KRAS G12C) (Homo sapiens, UniProt P01116, G12C); test: Assay of intracellular pERK1/2 (Thr202/Tyr204) phosphorylation in NCI-H358 cells (KRAS G12C); settings: pERK1/2, 2 days, read-out: NCI-H358 (KRAS G12C) IC50
T3 construct: pERK1/2 HTRF read-out
T3 sequence (P01116 1-188 isoform P01116-2 G12C): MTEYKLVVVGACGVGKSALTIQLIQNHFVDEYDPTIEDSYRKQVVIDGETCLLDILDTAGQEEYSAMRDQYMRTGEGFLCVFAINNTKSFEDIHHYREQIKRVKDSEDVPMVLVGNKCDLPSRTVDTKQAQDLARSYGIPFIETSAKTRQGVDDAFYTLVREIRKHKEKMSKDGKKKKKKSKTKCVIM
Summary of the method: as §1

T1 sequence (P01116 1-188 isoform P01116-2 G12V): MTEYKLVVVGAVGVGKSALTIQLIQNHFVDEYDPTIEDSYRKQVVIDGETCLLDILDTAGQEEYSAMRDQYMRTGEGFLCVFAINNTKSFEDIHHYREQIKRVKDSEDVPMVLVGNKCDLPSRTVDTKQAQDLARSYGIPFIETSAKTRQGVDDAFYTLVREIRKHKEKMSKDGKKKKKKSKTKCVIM

Row | SMILES | IC50 [1] | IC50 [2] | IC50 [3]
1 | Cc1ccnc(N)c1C(C)N1CCOc2nc(-c3cc(N)c(F)c(C)c3C(F)(F)F)c(F)c3nc(OC[C@@]45CCCN4C[C@H](F)C5)nc1c23 (single isomer, unassigned) [Compound 257, 3-((R or S)-1-(5-(5-amino-4-fluoro-3-methyl-2-(trifluoromethyl)phenyl)-4-fluoro-2-(((2R,7aS)-2-fluorotetrahydro-1H-pyrrolizin-7a(5H)-yl)methoxy)-8,9-dihydro-10H-7-oxa-1,3,6,10-tetraazacyclohepta[de]naphthalen-10-yl)ethyl)-4-methylpyridin-2-amine] | 6 nM | 51 nM | 2 nM
2 | CCc1c(F)ccc2cc(O)cc(-c3nc4c5c(nc(OC[C@@]67CCCN6C[C@H](F)C7)nc5c3F)N(C(C)c3cccnc3N)[C@@H](C)CO4)c12 (single isomer, unassigned) [Compound 280, 4-((S)-10-((R or S)-1-(2-aminopyridin-3-yl)ethyl)-4-fluoro-2-(((2R,7aS)-2-fluorotetrahydro-1H-pyrrolizin-7a(5H)-yl)methoxy)-9-methyl-9,10-dihydro-8H-7-oxa-1,3,6,10-tetraazacyclohepta[de]naphthalen-5-yl)-5-ethyl-6-fluoronaphthalen-2-ol] | 11 nM | 5 nM | 6 nM
3 | Cc1cc2[nH]ncc2c(-c2nc3c4c(nc(OC[C@@]56CCCN5C[C@H](F)C6)nc4c2F)N([C@H](C)c2cccnc2N)[C@@H](C2CC2)CO3)c1C(F)(F)F [Compound 390] | 31 nM | > 100 nM | 11 nM
4 | Cc1c(C(F)(F)F)c(-c2nc3c4c(nc(OCC5(CN(C)C6CC6)CC5)nc4c2F)N(C(C)c2cccnc2N)[C@@H](C)CO3)c2cn[nH]c2c1F (stereo partly drawn) [Compound 395] | 4 nM | 21 nM | 1 nM
5 | CC(c1cccnc1N)N1CCOc2nc(-c3cc(O)cc(Cl)c3C3CC3)c(F)c3nc(OC[C@@H]4CCN4CC(F)F)nc1c23 (stereo partly drawn) [Compound 16] | 5 nM | 151 nM | 2 nM
6 | CC(c1cccnc1N)N1c2nc(OC[C@@H]3C[C@@H](F)CN3C)nc3c(F)c(-c4cc(O)cc(Cl)c4C4CC4)nc(c23)OC[C@@H]1C (stereo partly drawn) [Compound 291] | 0.3 nM | 1 nM | 0.1 nM
7 | Cc1c(F)c(N)cc(-c2nc3c4c(nc(OC[C@@]56CCCN5C[C@H](F)C6)nc4c2F)N(C(C)c2cccnc2N)C[C@@H](C)O3)c1C(F)(F)F (single isomer, unassigned) [Compound 248, 3-((R or S)-1-((R)-5-(5-amino-4-fluoro-3-methyl-2-(trifluoromethyl)phenyl)-4-fluoro-2-(((2R,7aS)-2-fluorotetrahydro-1H-pyrrolizin-7a(5H)-yl)methoxy)-8-methyl-8,9-dihydro-10H-7-oxa-1,3,6,10-tetraazacyclohepta[de]naphthalen-10-yl)ethyl)pyridin-2-amine] | 1 nM | 8 nM | 0.4 nM
8 | Cc1cc2[nH]ncc2c(-c2nc3c4c(nc(OC[C@@]56CCCN5C[C@H](F)C6)nc4c2F)N([C@@H](C)c2cc(F)cnc2N)[C@@H](C)CO3)c1C(F)(F)F [Compound 364] | > 100 nM | > 100 nM | > 100 nM
9 | Cc1cc2[nH]ncc2c(-c2nc3c4c(nc(OC[C@@]56CCCN5C[C@H](F)C6)nc4c2F)N(C(C)c2cccnc2N)CCO3)c1C (stereo partly drawn) [Compound 2, 3-(1-(5-(5,6-Dimethyl-1H-indazol-4-yl)-4-fluoro-2-(((2R,7aS)-2-fluorotetrahydro-1H-pyrrolizin-7a(5H)-yl)methoxy)-8,9-dihydro-1OH-7-oxa-1,3,6,10-tetraazacyclohepta[de]naphthalen-10-yl)ethyl)pyridin-2-amine] | 42 nM | 321 nM | 9 nM
10 | CC(c1cccnc1N)N1CCOc2nc(-c3cc(O)cc(F)c3C3CC3)c(F)c3nc(OC[C@@H]4CCN4CC(F)F)nc1c23 (single isomer, unassigned) [Compound 24, 3-(10-((R or S)-1-(2-aminopyridin-3-yl)ethyl)-2-(((S)-1-(2,2-difluoroethyl)azetidin-2-yl)methoxy)-4-fluoro-9,10-dihydro-8H-7-oxa-1,3,6,10-tetraazacyclohepta[de]naphthalen-5-yl)-4-cyclopropyl-5-fluorophenol] | 11 nM | 290 nM | 3 nM
11 | CC(c1cccnc1N)N1c2nc(OC[C@@]34CCCN3C[C@H](F)C4)nc3c(F)c(-c4c5cn[nH]c5cc5cccc(F)c45)nc(c23)OC[C@@H]1C (stereo partly drawn) [Compound 362] | 0.3 nM | 0.4 nM | 0.2 nM
12 | Cc1cc2[nH]ncc2c(-c2nc3c4c(nc(OC[C@@]56CCCN5C[C@H](F)C6)nc4c2F)N(C(C)c2cccnc2N)[C@@H](C)CO3)c1C1CC1 (stereo partly drawn) [Compound 317] | 0.8 nM | 0.3 nM | 0.4 nM
13 | C[C@@H](c1cccnc1N)N1CCOc2nc(-c3c(C(F)(F)F)ccc4[nH]ncc34)c(F)c3nc(OC[C@@]45CCCN4C[C@H](F)C5)nc1c23 (single isomer, unassigned) [Compound 27, 3-((1R or 1S)-1-(4-fluoro-2-(((2R,7aS)-2-fluorotetrahydro-1H-pyrrolizin-7a(5H)-yl)methoxy)-5-(5-(trifluoromethyl)-1H-indazol-4-yl)-8,9-dihydro-10H-7-oxa-1,3,6,10-tetraazacyclohepta[de]naphthalen-10-yl)ethyl)pyridin-2-amine] | 11 nM | 106 nM | 2 nM

Results, then the molecule that gave them:

Row | IC50 [1] | IC50 [2] | IC50 [3] | SMILES
14 | > 100 nM | > 100 nM | > 100 nM | Cc1cc(N)cc(-c2nc3c4c(nc(OC[C@@H]5CCCN5)nc4c2F)N(C(C)c2cccnc2N)CCO3)c1C(F)(F)F (single isomer, unassigned) [Compound 106]
15 | 247 nM | > 1000 nM | 137 nM | CC(c1cccnc1N)N1CCOc2nc(-c3cc(O)cc4ccc(F)c(F)c34)c(F)c3nc(OC[C@@H]4COCCN4)nc1c23 (stereo partly drawn) [Compound 13]
16 | 0.3 nM | 1 nM | 0.2 nM | [2H]C1([2H])CC[C@@]2(COc3nc4c5c(nc(-c6cc(N)c(F)c(C)c6C(F)(F)F)c(F)c5n3)OCCN4C(C)c3cccnc3N)C[C@@H](F)CN12 (stereo partly drawn) [Compound 150]
17 | 0.5 nM | 2 nM | 0.2 nM | [2H][C@]1(F)CN2CCC[C@@]2(COc2nc3c4c(nc(-c5cc(N)c(F)c(C)c5C(F)(F)F)c(F)c4n2)OCCN3C(C)c2cccnc2N)C1 (single isomer, unassigned) [Compound 170, (*)3-(1-(5-(5-amino-4-fluoro-3-methyl-2-(trifluoromethyl)phenyl)-4-fluoro-2-(((2S or 2R,7aS)-2-fluorotetrahydro-1H-pyrrolizin-7a(5H)-yl-2-d)methoxy)-8,9-dihydro-1OH-7-oxa-1,3,6,10-tetraazacyclohepta[de]naphthalen-10-yl)ethyl)pyridin-2-amine]
18 | 43 nM | > 100 nM | 26 nM | CC(c1cccnc1N)N1CCOc2nc(-c3cc(N)cc(F)c3C(F)(F)F)c(F)c3nc(OC[C@@]45CCCN4C[C@H](F)C5)nc1c23 (single isomer, unassigned) [Compound 89, 3-((R or S)-1-(5-(5-amino-3-fluoro-2-(trifluoromethyl)phenyl)-4-fluoro-2-(((2R,7aS)-2-fluorotetrahydro-1H-pyrrolizin-7a(5H)-yl)methoxy)-8,9-dihydro-10H-7-oxa-1,3,6,10-tetraazacyclohepta[de]naphthalen-10-yl)ethyl)pyridin-2-amine]
19 | 2 nM | > 100 nM | 2 nM | Cc1cc(N)cc(-c2nc3c4c(nc(OC[C@@H]5CC(F)(F)CN5C)nc4c2F)N(C(C)c2cccnc2N)CCO3)c1C(F)(F)F (stereo partly drawn) [Compound 70]
20 | 0.4 nM | 2 nM | 0.2 nM | CC(c1cccnc1N)N1CCOc2nc(-c3cc(N)c(F)c(Cl)c3C(F)(F)F)c(F)c3nc(OC[C@@]45CCCN4C[C@H](F)C5)nc1c23 (stereo partly drawn) [Compound 168]
21 | 6 nM | 91 nM | 2 nM | CC(c1cccnc1N)N1CCOc2nc(-c3cc(N)cc(F)c3C(F)(F)F)c(F)c3nc(OC[C@@H]4CCCN4C)nc1c23 (single isomer, unassigned) [Compound 90, 3-((R or S)-1-(5-(5-amino-3-fluoro-2-(trifluoromethyl)phenyl)-4-fluoro-2-(((S)-1-methylpyrrolidin-2-yl)methoxy)-8,9-dihydro-10H-7-oxa-1,3,6,10-tetraazacyclohepta[de]naphthalen-10-yl)ethyl)pyridin-2-amine]
22 | > 1000 nM | > 1000 nM | 405 nM | CC(c1cccnc1N)N1CCOc2nc(-c3cc(O)cc(Cl)c3C3CC3)c(F)c3nc(OC[C@@H]4CCCN4C)nc1c23 (single isomer, unassigned) [Compound 31, 3-(10-((R or S)-1-(2-aminopyridin-3-yl)ethyl)-4-fluoro-2-(((S)-1-methylpyrrolidin-2-yl)methoxy)-9,10-dihydro-8H-7-oxa-1,3,6,10-tetraazacyclohepta[de]naphthalen-5-yl)-5-chloro-4-cyclopropylphenol]
